Source: ChEMBL document CHEMBL1687845, “Carotenoid-related alteration of cell membrane fluidity impacts Staphylococcus aureus susceptibility to host defense peptides” (2011)
In brackets after ≈: the same amount, converted by molar mass.

What was measured:
Staphylococcus aureus [1] = test: Antibacterial activity against wild type methicillin-susceptible Staphylococcus aureus SA144 assessed as bacterial survival at 0.625 ug/ml after 2 hrs; type: functional; settings: SA144, 2 h
Staphylococcus aureus [2] = test: Antibacterial activity against methicillin-susceptible Staphylococcus aureus SA146 harboring deltacrtM-pDCerm by Etest; type: functional
Staphylococcus aureus [3] = test: Antibacterial activity against wild type methicillin-susceptible Staphylococcus aureus SA144 by Etest; type: functional
Staphylococcus aureus [4] = test: Antibacterial activity against methicillin-susceptible Staphylococcus aureus SA147 harboring deltacrtM-pDCerm::crtMN by Etest; type: functional
Staphylococcus aureus [5] = test: Antibacterial activity against methicillin-susceptible Staphylococcus aureus SA145 harboring crtM deletion mutant by Etest; type: functional
Staphylococcus aureus [6] = test: Antibacterial activity against methicillin-susceptible Staphylococcus aureus SA145 harboring crtM deletion mutant assessed as bacterial survival at 0.625 ug/ml after 2 hrs; type: functional; settings: SA145, 2 h
Staphylococcus aureus [7] = test: Ratio of MIC for methicillin-susceptible Staphylococcus aureus SA147 harboring deltacrtM-pDCerm::crtMN to MIC for wild type methicillin-susceptible Staphylococcus aureus SA144; type: functional
Staphylococcus aureus [8] = test: Antibacterial activity against methicillin-susceptible Staphylococcus aureus SA147 harboring deltacrtM-pDCerm::crtMN assessed as bacterial survival at 0.625 ug/ml after 2 hrs; type: functional; settings: SA147, 2 h
Staphylococcus aureus [9] = test: Antibacterial activity against wild type methicillin-susceptible Staphylococcus aureus SA144 assessed as bacterial survival at 1.25 ug/ml after 2 hrs; type: functional; settings: SA144, 2 h
Staphylococcus aureus [10] = test: Antibacterial activity against methicillin-susceptible Staphylococcus aureus SA147 harboring deltacrtM-pDCerm::crtMN assessed as bacterial survival at 1.25 ug/ml after 2 hrs; type: functional; settings: SA147, 2 h
Staphylococcus aureus [11] = test: Antibacterial activity against methicillin-susceptible Staphylococcus aureus SA145 harboring crtM deletion mutant assessed as bacterial survival at 1.25 ug/ml after 2 hrs; type: functional; settings: SA145, 2 h
Staphylococcus aureus [12] = test: Antibacterial activity against methicillin-susceptible Staphylococcus aureus SA145 harboring crtM deletion mutant assessed as bacterial survival at 5 ug/ml after 2 hrs; type: functional; settings: SA145, 2 h
Staphylococcus aureus [13] = test: Antibacterial activity against wild type methicillin-susceptible Staphylococcus aureus SA144 assessed as bacterial survival at 5 ug/ml after 2 hrs; type: functional; settings: SA144, 2 h
Staphylococcus aureus [14] = test: Antibacterial activity against methicillin-susceptible Staphylococcus aureus SA145 harboring crtM deletion mutant assessed as bacterial survival at 2.5 ug/ml after 2 hrs; type: functional; settings: SA145, 2 h
Staphylococcus aureus [15] = test: Antibacterial activity against methicillin-susceptible Staphylococcus aureus SA147 harboring deltacrtM-pDCerm::crtMN assessed as bacterial survival at 2.5 ug/ml after 2 hrs; type: functional; settings: SA147, 2 h
Staphylococcus aureus [16] = test: Antibacterial activity against methicillin-susceptible Staphylococcus aureus SA147 harboring deltacrtM-pDCerm::crtMN assessed as bacterial survival at 5 ug/ml after 2 hrs; type: functional; settings: SA147, 2 h
Staphylococcus aureus [17] = test: Antibacterial activity against wild type methicillin-susceptible Staphylococcus aureus SA144 assessed as bacterial survival at 2.5 ug/ml after 2 hrs; type: functional; settings: SA144, 2 h
Staphylococcus aureus [18] = test: Antibacterial activity against wild type methicillin-susceptible Staphylococcus aureus SA144 assessed as bacterial survival at 80 ug/ml after 2 hrs; type: functional, organism-based
Staphylococcus aureus [19] = test: Antibacterial activity against methicillin-susceptible Staphylococcus aureus SA147 harboring deltacrtM-pDCerm::crtMN assessed as bacterial survival at 80 ug/ml after 2 hrs; type: functional, organism-based
Staphylococcus aureus [20] = test: Antibacterial activity against methicillin-susceptible Staphylococcus aureus SA145 harboring crtM deletion mutant assessed as bacterial survival at 80 ug/ml after 2 hrs; type: functional, organism-based
Staphylococcus aureus [21] = test: Antibacterial activity against methicillin-susceptible Staphylococcus aureus SA145 harboring crtM deletion mutant assessed as bacterial survival at 40 ug/ml after 2 hrs; type: functional, organism-based
Staphylococcus aureus [22] = test: Antibacterial activity against wild type methicillin-susceptible Staphylococcus aureus SA144 assessed as bacterial survival at 40 ug/ml after 2 hrs; type: functional, organism-based
Staphylococcus aureus [23] = test: Antibacterial activity against methicillin-susceptible Staphylococcus aureus SA147 harboring deltacrtM-pDCerm::crtMN assessed as bacterial survival at 40 ug/ml after 2 hrs; type: functional, organism-based

CCCCCCCCCC(=O)N[C@@H](Cc1c[nH]c2ccccc12)C(=O)N[C@H](CC(N)=O)C(=O)N[C@@H](CC(=O)O)C(=O)N[C@@H]1C(=O)NCC(=O)N[C@@H](CCCN)C(=O)N[C@@H](CC(=O)O)C(=O)N[C@H](C)C(=O)N[C@@H](CC(=O)O)C(=O)NCC(=O)N[C@H](CO)C(=O)N[C@@H]([C@H](C)CC(=O)O)C(=O)N[C@@H](CC(=O)c2ccccc2N)C(=O)O[C@@H]1C
survival at 0.625 µg/mL (Staphylococcus aureus [1]): 18%
MIC (Staphylococcus aureus [2]): 0.75 µg/mL (≈ 0.463 µM)
MIC (Staphylococcus aureus [3]): 0.75 µg/mL (≈ 0.463 µM)
MIC (Staphylococcus aureus [4]): 1.5 µg/mL (≈ 0.926 µM)
MIC (Staphylococcus aureus [5]): 0.75 µg/mL (≈ 0.463 µM)
survival at 0.625 µg/mL (Staphylococcus aureus [6]): 24%
Ratio (Staphylococcus aureus [7]): 2
survival at 0.625 µg/mL (Staphylococcus aureus [8]): 55%
survival at 1.25 µg/mL (Staphylococcus aureus [9]): 12%
survival at 1.25 µg/mL (Staphylococcus aureus [10]): 49%
survival at 1.25 µg/mL (Staphylococcus aureus [11]): 21%

H-ALYKKFKKKLLKSLKRLG-OH
survival at 5 µg/mL (Staphylococcus aureus [12]): 13%
survival at 5 µg/mL (Staphylococcus aureus [13]): 11%
survival at 2.5 µg/mL (Staphylococcus aureus [14]): 18%
survival at 2.5 µg/mL (Staphylococcus aureus [15]): 55%
survival at 5 µg/mL (Staphylococcus aureus [16]): 23%
survival at 2.5 µg/mL (Staphylococcus aureus [17]): 23%

POLYMYXIN B
Survival (Staphylococcus aureus [18]): 13%
Survival (Staphylococcus aureus [19]): 26%
Survival (Staphylococcus aureus [20]): 14%
Survival (Staphylococcus aureus [21]): 23%
Survival (Staphylococcus aureus [22]): 29%
Survival (Staphylococcus aureus [23]): 25%
